Data from article PMC5318233 (Cancer letters, 2016).
pKi: −log10 of the molar value.

What was measured:
[1] = target: complex III (electron transport chain); type: biochemical
[2] = target: complex I (NADH-ubiquinone oxidoreductase); type: biochemical

pKi [1]: 4.49
Structure (SMILES): Cc1ccc(Sc2cccc3[nH]c4nc(N)nc(N)c4c23)cc1 [AG311]
pKi [2]: 6.08
